Measurements taken from patent US8853233B2, “Broad-spectrum anti-cancer treatment based on iminocamptothecin derivatives” (Sigma-Tau Industrie Farmaceutiche Riunite S.p.A., priority 2007, dated 2014).

Key:
Parameters in all cases: species or system nude athymic mice
[1] = system: FaDu squamous pharynx carcinoma xenograft; test: In vivo antitumoral activity, FaDu tumor xenograft
Experimental: (§1) Exponentially growing tumor cells were injected s.c. into nude athymic mice. The number of tumor cells was previously chosen by a growth curve. […] Animals were housed under a light-dark cycle, keeping temperature and humidity constant. Parameters of the animal rooms were assessed as follows: 22±2° C. temperature, 55±10% relative humidity, about 15-20 filtered air changes/hour and 12 hour circadian cycle of artificial light (7 a.m., 7 p.m.). At request, the environmental conditions were monitored and the data are retained in Animal Housing Archives. Drinking water was supplied ad libitum. Each mouse was offered daily a complete pellet diet (GLP 4RF21, Mucedola) throughout the study. The analytical certificates of animal food and water are retained at Sigma-Tau premises. All animals were weighed before starting the experiment and were subdivided into the different dosage groups. Each cage was identified by a paper tag indicating: cage number, group, date of tumor injection, starting date of treatment, name of the test item, dose and route of administration, date of sacrifice.
(§2) Tumor growth was followed by biweekly measurements of tumor diameters with a Vernier caliper. Tumor volume (TV, mm^3) was calculated as: [length (mm)×width (mm)^2]/2, where the width and the length are the shortest and the longest diameters of each tumor, respectively.
(§3) LTS (long term survivors) were considered mice without tumor 90 days upon the tumor injection.

[2] = system: A253 epidermoid submaxillary salivary gland carcinoma xenograft; test: In vivo antitumoral activity, A253 tumor xenograft; conditions: q4d × 4
Experimental: as §1, §2
LTS (long term survivors) were considered mice without tumor 90 days upon the tumor injection. […]

[3] = system: KB squamous oral head and neck carcinoma xenograft; test: In vivo antitumoral activity, KB tumor xenograft; conditions: q4d × 4
Experimental: as §1, §2, §3

[4] = system: HT1376 bladder ca. xenograft; test: In vivo antitumoral activity, HT1376 tumor xenograft; conditions: q4d × 4
Experimental: as §1, §2, §3

[5] = system: A431 epidermoid skin ca. xenograft; test: In vivo antitumoral activity, A431 tumor xenograft; conditions: q4d × 4
Experimental: as §1, §2, §3

[6] = system: MESO mesothelioma xenograft; test: In vivo antitumoral activity, MESO tumor xenograft; conditions: q4d × 4
Experimental: as §1, §2, §3

[7] = system: MiaPaCa2 pancreas ca. xenograft; test: In vivo antitumoral activity, MiaPaCa2 tumor xenograft; conditions: q4d × 4
Experimental: as §1, §2, §3

[8] = system: 501Mel melanoma xenograft; test: In vivo antitumoral activity, 501Mel tumor xenograft; conditions: 501Mel xenograft, q4d × 4
Experimental: as §1, §2, §3

In the case of CC[C@@]1(O)C(=O)OCc2c1cc1n(c2=O)Cc2c-1nc1ccccc1c2/C=N\OCCN [ST1968, 7-(2-amino)ethoxyiminomethylcamptothecin], the “CR (complete response)” value ([1]; 15 mg/kg i.v., q4d × 4) is reported as 8/8, the “LCK (log10 cell kill)” value ([1]; 15 mg/kg i.v., q4d × 4) is reported as >>3.9 and the “LTS (long term survivors)” value ([1]; 15 mg/kg i.v., q4d × 4) is reported as 8/8. The “TVI % (tumor volume inhibition)” value ([1]; 15 mg/kg i.v., q4d × 4) was 100%, the “CR (complete response)” value ([1]; 30 mg/kg i.v., q4d × 4) was 8/8 and the “LCK (log10 cell kill)” value ([1]; 30 mg/kg i.v., q4d × 4) was >>3.9. For the same compound, the “LTS (long term survivors)” value ([1]; 30 mg/kg i.v., q4d × 4) was 8/8, the “TVI % (tumor volume inhibition)” value ([1]; 30 mg/kg i.v., q4d × 4) was 100% and the “CR (complete response)” value ([1]; 35 mg/kg i.v., q4d × 4) was 7/7. For the same compound, the “LCK (log10 cell kill)” value ([1]; 35 mg/kg i.v., q4d × 4) was >>3.9, the “LTS (long term survivors)” value ([1]; 35 mg/kg i.v., q4d × 4) was 7/7 and the “TVI % (tumor volume inhibition)” value ([1]; 35 mg/kg i.v., q4d × 4) was 100%. The “CR (complete response)” value ([2]; 15 mg/kg i.v.) was 0/8, the “LCK (log10 cell kill)” value ([2]; 15 mg/kg i.v.) was 0.6 and the “LTS (long term survivors)” value ([2]; 15 mg/kg i.v.) was 0/8. For the same compound, the “TVI % (tumor volume inhibition)” value ([2]; 15 mg/kg i.v.) was 84%, the “CR (complete response)” value ([2]; 30 mg/kg i.v.) was 0/8 and the “LCK (log10 cell kill)” value ([2]; 30 mg/kg i.v.) was 1.2. For the same compound, the “LTS (long term survivors)” value ([2]; 30 mg/kg i.v.) was 1/8, the “TVI % (tumor volume inhibition)” value ([2]; 30 mg/kg i.v.) was 90% and the “CR (complete response)” value ([2]; 35 mg/kg i.v.) was 0/7. The “LCK (log10 cell kill)” value ([2]; 35 mg/kg i.v.) was 1.5, the “LTS (long term survivors)” value ([2]; 35 mg/kg i.v.) was 2/7 and the “TVI % (tumor volume inhibition)” value ([2]; 35 mg/kg i.v.) was 96%. The “CR (complete response)” value ([3]; 17.5 mg/kg i.v.) was 4/8, the “LCK (log10 cell kill)” value ([3]; 17.5 mg/kg i.v.) was 3.79 and the “LTS (long term survivors)” value ([3]; 17.5 mg/kg i.v.) was 4/8. The “TVI % (tumor volume inhibition)” value ([3]; 17.5 mg/kg i.v.) was 99%, the “CR (complete response)” value ([3]; 35 mg/kg i.v.) was 7/7 and the “LCK (log10 cell kill)” value ([3]; 35 mg/kg i.v.) was >>4.0. The “LTS (long term survivors)” value ([3]; 35 mg/kg i.v.) was 7/7, the “TVI % (tumor volume inhibition)” value ([3]; 35 mg/kg i.v.) was 100% and the “CR (complete response)” value ([4]; 30 mg/kg i.v.) was 1/12. For the same compound, the “LCK (log10 cell kill)” value ([4]; 30 mg/kg i.v.) was 0.5, the “LTS (long term survivors)” value ([4]; 30 mg/kg i.v.) was 0/12 and the “TVI % (tumor volume inhibition)” value ([4]; 30 mg/kg i.v.) was 77%. The “CR (complete response)” value ([5]; 30 mg/kg i.v.) was 12/12, the “LCK (log10 cell kill)” value ([5]; 30 mg/kg i.v.) was >>7.7 and the “LTS (long term survivors)” value ([5]; 30 mg/kg i.v.) was 12/12. The “TVI % (tumor volume inhibition)” value ([5]; 30 mg/kg i.v.) was 100%, the “CR (complete response)” value ([6]; 30 mg/kg i.v.) was 2/12 and the “LCK (log10 cell kill)” value ([6]; 30 mg/kg i.v.) was 1.4. The “LTS (long term survivors)” value ([6]; 30 mg/kg i.v.) was 0/12, the “TVI % (tumor volume inhibition)” value ([6]; 30 mg/kg i.v.) was 92% and the “CR (complete response)” value ([7]; 17.5 mg/kg i.v.) was 0/7. The “LCK (log10 cell kill)” value ([7]; 17.5 mg/kg i.v.) was 1.23, the “LTS (long term survivors)” value ([7]; 17.5 mg/kg i.v.) was 0/7 and the “TVI % (tumor volume inhibition)” value ([7]; 17.5 mg/kg i.v.) was 75%. For the same compound, the “CR (complete response)” value ([7]; 30 mg/kg i.v.) was 0/8, the “LCK (log10 cell kill)” value ([7]; 30 mg/kg i.v.) was 1.67 and the “LTS (long term survivors)” value ([7]; 30 mg/kg i.v.) was 0/8. For the same compound, the “TVI % (tumor volume inhibition)” value ([7]; 30 mg/kg i.v.) was 89%, the “CR (complete response)” value ([8]; 20 mg/kg i.v.) was 0/6 and the “LCK (log10 cell kill)” value ([8]; 20 mg/kg i.v.) was 1.0. The “LTS (long term survivors)” value ([8]; 20 mg/kg i.v.) was 0/6, the “TVI % (tumor volume inhibition)” value ([8]; 20 mg/kg i.v.) was 65% and the “CR (complete response)” value ([8]; 30 mg/kg i.v.) was 0/10. For the same compound, the “LCK (log10 cell kill)” value ([8]; 30 mg/kg i.v.) was 1.4, the “LTS (long term survivors)” value ([8]; 30 mg/kg i.v.) was 0/10 and the “TVI % (tumor volume inhibition)” value ([8]; 30 mg/kg i.v.) was 68%.

In the case of N.N.[Cl][Pt][Cl] [cisplatin], the “CR (complete response)” value ([1]; 4.7 mg/kg i.v., q7d × 3) is reported as 1/8, the “LCK (log10 cell kill)” value ([1]; 4.7 mg/kg i.v., q7d × 3) is reported as 1.6 and the “LTS (long term survivors)” value ([1]; 4.7 mg/kg i.v., q7d × 3) is reported as 0/8. The “TVI % (tumor volume inhibition)” value ([1]; 4.7 mg/kg i.v., q7d × 3) was 93%, the “CR (complete response)” value ([1]; 7 mg/kg i.v., q7d × 3) was 1/8 and the “LCK (log10 cell kill)” value ([1]; 7 mg/kg i.v., q7d × 3) was 3.9. The “LTS (long term survivors)” value ([1]; 7 mg/kg i.v., q7d × 3) was 3/8 and the “TVI % (tumor volume inhibition)” value ([1]; 7 mg/kg i.v., q7d × 3) was 99%.

For CCc1c2c(nc3ccc(OC(=O)N4CCC(N5CCCCC5)CC4)cc13)-c1cc3c(c(=O)n1C2)COC(=O)[C@]3(O)CC [irinotecan, reference compound], the “CR (complete response)” value ([1]; 30 mg/kg i.v., q4d × 4) was 8/8, the “LCK (log10 cell kill)” value ([1]; 30 mg/kg i.v., q4d × 4) was >>3.9 and the “LTS (long term survivors)” value ([1]; 30 mg/kg i.v., q4d × 4) was 8/8. The “CR (complete response)” value ([1]; 60 mg/kg i.v., q4d × 4) was 8/8, the “LCK (log10 cell kill)” value ([1]; 60 mg/kg i.v., q4d × 4) was >>3.9 and the “LTS (long term survivors)” value ([1]; 60 mg/kg i.v., q4d × 4) was 8/8. For the same compound, the “CR (complete response)” value ([2]; 30 mg/kg i.v.) was 0/8, the “LCK (log10 cell kill)” value ([2]; 30 mg/kg i.v.) was 0.1 and the “LTS (long term survivors)” value ([2]; 30 mg/kg i.v.) was 0/8. For the same compound, the “CR (complete response)” value ([2]; 60 mg/kg i.v.) was 0/8, the “LCK (log10 cell kill)” value ([2]; 60 mg/kg i.v.) was 0.5 and the “LTS (long term survivors)” value ([2]; 60 mg/kg i.v.) was 0/8. The “CR (complete response)” value ([3]; 30 mg/kg i.v.) was 0/7, the “LCK (log10 cell kill)” value ([3]; 30 mg/kg i.v.) was 1.26 and the “LTS (long term survivors)” value ([3]; 30 mg/kg i.v.) was 0/7. The “CR (complete response)” value ([3]; 60 mg/kg i.v.) was 0/8, the “LCK (log10 cell kill)” value ([3]; 60 mg/kg i.v.) was 1.63 and the “LTS (long term survivors)” value ([3]; 60 mg/kg i.v.) was 0/8. The “CR (complete response)” value ([4]; 50 mg/kg i.v.) was 0/10, the “LCK (log10 cell kill)” value ([4]; 50 mg/kg i.v.) was 0.2 and the “LTS (long term survivors)” value ([4]; 50 mg/kg i.v.) was 0/10. For the same compound, the “CR (complete response)” value ([5]; 50 mg/kg i.v.) was 12/12, the “LCK (log10 cell kill)” value ([5]; 50 mg/kg i.v.) was 6.8 and the “LTS (long term survivors)” value ([5]; 50 mg/kg i.v.) was 9/12. The “CR (complete response)” value ([6]; 50 mg/kg i.v.) was 0/12, the “LCK (log10 cell kill)” value ([6]; 50 mg/kg i.v.) was 0.8 and the “LTS (long term survivors)” value ([6]; 50 mg/kg i.v.) was 0/12. For the same compound, the “CR (complete response)” value ([7]; 60 mg/kg i.v.) was 0/7, the “LCK (log10 cell kill)” value ([7]; 60 mg/kg i.v.) was 1.23 and the “LTS (long term survivors)” value ([7]; 60 mg/kg i.v.) was 0/7. The “CR (complete response)” value ([8]; 50 mg/kg i.v.) was 0/10, the “LCK (log10 cell kill)” value ([8]; 50 mg/kg i.v.) was 1.3 and the “LTS (long term survivors)” value ([8]; 50 mg/kg i.v.) was 0/10.
